Data on twelve compounds can be found in ChEMBL document CHEMBL6109176, “Drug-like Antagonists of P2Y Receptor Subtypes: An Update” (J Med Chem, 2025).

For test [1], the target named is T1, P2Y purinoceptor 12 (Homo sapiens, UniProt Q9H244). Kind of test: Inhibition of P2Y12R (unknown origin) by HTS assay.
Test [2] has as its target T2, P2Y purinoceptor 1 (Homo sapiens, UniProt P47900). Put plainly: inhibition of P2Y1R (unknown origin).
For test [3], the target named is T2, P2Y purinoceptor 1. Put plainly: Binding affinity yo human P2Y1R extracted from baculovirus infected Sf9 cells assessed as inhibition constant incubated for 30 mins.
Test [4] addresses P2Y purinoceptor 2 (Homo sapiens, UniProt P41231). Kind of test: Antagonist activity at human P2Y2R stably expressed in 1321N1 cells assessed as UTP-induced Ca2+ accumulation preincubated with compound for 30 mins followed by UTP addition by […]. Format: functional, cell-based. (In an ELISA, binding on a coated surface is turned into a signal by an enzyme label.)
Test [5] is described as follows: Antagonist activity at P2Y14R (unknown origin). Also noted: species or system Homo sapiens.
Test [6] concerns the target T3, P2Y purinoceptor 14 (Homo sapiens, UniProt Q15391).
T3 sequence (Q15391 whole entry): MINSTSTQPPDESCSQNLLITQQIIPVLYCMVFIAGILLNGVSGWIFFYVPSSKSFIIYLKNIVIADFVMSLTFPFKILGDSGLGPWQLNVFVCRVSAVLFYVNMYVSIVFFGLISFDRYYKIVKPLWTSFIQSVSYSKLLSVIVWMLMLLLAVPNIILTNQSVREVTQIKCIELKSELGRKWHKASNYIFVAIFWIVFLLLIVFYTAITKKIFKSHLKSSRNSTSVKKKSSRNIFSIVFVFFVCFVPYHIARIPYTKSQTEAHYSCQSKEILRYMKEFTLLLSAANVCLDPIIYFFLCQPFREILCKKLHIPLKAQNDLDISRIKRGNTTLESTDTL
Put plainly: Binding affinity to P2Y14R (unknown origin) expressed in CHO cells assessed as inhibition constant. Format: cell-based.

The target of test [7] is T1, P2Y purinoceptor 12. Kind of test: Antagonist activity at P2Y12R (unknown origin).
Test [8] deals with T1, P2Y purinoceptor 12. Kind of test: Binding affinity to human P2Y12R expressed in CHO cells assessed as dissociation constant SPR assay. On the technique in general: In SPR one partner is held on a chip, and binding of the other changes the refractive index at the surface.
Test [9] can be described thus: Inhibition of platelet aggregation in human platelet rich plasma preincubated for 5 mins followed by aggregation inducer addition and measured after 5 mins by light transmission aggregation method. Format: functional.

T2 sequence (P47900 whole entry): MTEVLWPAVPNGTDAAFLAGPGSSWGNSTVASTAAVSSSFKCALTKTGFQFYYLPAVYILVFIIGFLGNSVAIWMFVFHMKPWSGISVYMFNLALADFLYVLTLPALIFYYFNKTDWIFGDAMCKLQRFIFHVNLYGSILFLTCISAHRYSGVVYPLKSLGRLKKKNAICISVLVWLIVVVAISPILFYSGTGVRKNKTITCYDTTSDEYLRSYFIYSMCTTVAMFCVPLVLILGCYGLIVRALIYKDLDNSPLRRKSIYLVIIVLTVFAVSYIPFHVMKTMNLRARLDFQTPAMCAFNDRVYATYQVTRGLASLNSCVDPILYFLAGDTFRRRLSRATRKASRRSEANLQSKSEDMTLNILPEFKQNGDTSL
T1 sequence (Q9H244 whole entry): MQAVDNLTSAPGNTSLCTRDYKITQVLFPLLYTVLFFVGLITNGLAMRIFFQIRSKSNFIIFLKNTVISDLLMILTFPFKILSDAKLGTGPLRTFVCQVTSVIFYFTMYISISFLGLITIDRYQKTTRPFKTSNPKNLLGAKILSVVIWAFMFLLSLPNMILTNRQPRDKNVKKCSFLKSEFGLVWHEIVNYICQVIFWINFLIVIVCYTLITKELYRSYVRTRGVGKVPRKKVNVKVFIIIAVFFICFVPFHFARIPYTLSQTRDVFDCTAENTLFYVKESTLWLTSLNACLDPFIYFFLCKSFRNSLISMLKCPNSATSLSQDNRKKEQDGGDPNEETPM
Sequence of P2Y purinoceptor 2 (P41231 whole entry): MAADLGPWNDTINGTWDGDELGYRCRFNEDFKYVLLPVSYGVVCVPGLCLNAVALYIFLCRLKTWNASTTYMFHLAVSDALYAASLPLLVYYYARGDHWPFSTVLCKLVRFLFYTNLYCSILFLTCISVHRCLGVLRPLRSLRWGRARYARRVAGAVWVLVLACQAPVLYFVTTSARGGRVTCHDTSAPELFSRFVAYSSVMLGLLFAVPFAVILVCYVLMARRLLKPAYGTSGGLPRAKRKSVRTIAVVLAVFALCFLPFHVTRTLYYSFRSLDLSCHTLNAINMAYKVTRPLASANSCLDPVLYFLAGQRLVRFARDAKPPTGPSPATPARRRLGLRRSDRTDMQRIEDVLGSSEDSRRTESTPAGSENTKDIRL

By IC50 is commonly meant the concentration needed to halve the response being measured. In turn, `CCOC(=O)N1CCN(C(=O)[C@H](CCC(=O)O)NC(=O)c2cc(OC(C)(C)C(=O)OCC)c3ccc(C)cc3n2)CC1` returned an IC50 in test [1] of 97 nM. The compound `Cc1nc(/N=N/c2cc([N+](=O)[O-])ccc2Cl)c(COP(=O)(O)O)c(C=O)c1O` returned an IC50 in test [2] of 1100 nM. `CCOC(=O)N1CCN(C(=O)[C@H](CCC(=O)O)NC(=O)c2cc(OC(C)(C)C(=O)O)c3ccc(C)cc3n2)CC1` registered an IC50 in test [1] of 290 nM. A word on the Ki: it is a measure of affinity in units of concentration, obtained from inhibition or displacement. For `CNc1nc(I)nc2c1ncn2[C@H]1C[C@H](OP(=O)(O)O)[C@]2(COP(=O)(O)O)C[C@H]12`, in [3], the Ki is 0.79 nM.

Compound `Cc1nc(/N=N/c2ccc(Cl)c([N+](=O)[O-])c2)c(COP(=O)(O)O)c(C=O)c1O` came in with an IC50 in [2] of 660 nM. Consider `Cc1cc(O)c(C2=Nc3cc(C(F)(F)F)ccc3SC(c3cccc(O)c3)C2)c(=O)o1` (stereo not drawn), for which the concentration for half-maximal inhibition (IC50) in test [4] was 10900 nM. Turning to `O=C(O)c1cc(-c2ccc(-c3cn([C@@H]4O[C@H](CO)[C@@H](O)[C@H](O)[C@H]4O)nn3)cc2)c2ccc(-c3ccc(C(F)(F)F)cc3)cc2c1`, in [5], the IC50 turned out to be 12.8 nM. `CC(NC(=O)C(C)c1ccc(-c2ccccc2)c(F)c1)C(=O)O` (stereo not drawn) displayed an IC50 in test [5] of 5.12 nM.

Regarding `N=C1C=CC2=C(c3ccc(C(=O)NCCCCCCn4cc(CCCCN5CCC(c6ccc(-c7cc(C(=O)O)cc8cc(-c9ccc(C(F)(F)F)cc9)ccc78)cc6)CC5)nn4)cc3C(=O)O)C3C=CC(N)=C(S(=O)(=O)O)C3OC2C1S(=O)(=O)O` (stereo not drawn), the Ki in [6] is 0.08 nM. The compound `O=C(O)c1cc(-c2ccc(C3CCN(CCc4cn([C@@H]5O[C@H](CO)[C@@H](O)[C@H](O)[C@H]5O)nn4)CC3)cc2)c2ccc(-c3ccc(C(F)(F)F)cc3)cc2c1` gave an IC50 in test [5] of 2.4 nM. In test [7], `CNc1cc2[nH]c(=O)n(-c3ccc(NC(=O)NS(=O)(=O)c4ccc(Cl)s4)cc3)c(=O)c2cc1F` [ELINOGREL] showed an IC50 of under 10000 nM.

For orientation: Kd means the free concentration of one partner at which half of the binding sites on the other are occupied at equilibrium, for simple one-to-one binding. For `CCCCOC(=O)N1CCN(C(=O)[C@H](CP(=O)(O)O)NC(=O)c2cc(N3CC[C@H](OC)C3)nc(-c3ccccc3)n2)CC1` [SELATOGREL], the Kd in [8] was 1.5 nM. Further, the half-inhibitory concentration (IC50) in test [9] was found to be 14 nM.
